Test results taken from patent publication US12636291B2, “Compositions and methods relating to use of agonists of ALPHA5-containing GABAA receptors” (Centre for Addiction and Mental Health, priority 2019, dated 2026).

Tested on: SV129 mice
Assay: Neurogenesis (proliferation, survival, maturation) in the SV129 mouse model
Assay type: in vivo
Conditions: compared to VEH
Text: We next assessed the effects of GL-II-73 on neurogenesis using the SV129 mouse model Kim et al. 2017. Neural Plasticity, doi.org.10.1155/2017/5863258. Specifically, we assessed the effects of treatment on neuronal cell proliferation, survival, and maturation. It is now recognized that neurogenesis occurs not only during development, but also in the adult brain. […] Specifically, adult neurogenesis is known to occur in three regions in the mammalian brain: (i) the subgranular zone (SGZ) of the dentate gyrus in the hippocampus, which is a region that is involved in regulating learning and memory; (ii) the subventricular zone (SVZ), which is situated throughout the lateral walls of the brain's lateral ventricles; and (ii) the amygdala. New neurons born in the SGZ migrate into the granule cell layer of the dentate gyrus and eventually become granule cells. These newborn neurons integrate into the existing circuitry and receive functional input. Adult neurogenesis in the hippocampus is therefore defined as the progression from neural stem cell to mature dentate granule neuron. All stages of adult neurogenesis are regulated by physiological activity, including the proliferation, differentiation, fate determination of adult neural stem cells (NSCs) and progenitors, and the survival, maturation, and integration of newborn neurons.
The stages of neurogenesis can be broken down into (i) proliferation, (ii) survival of the newly formed cells, and (iii) their maturation. Each can be evaluated using specific markers for proliferation, survival, and maturation. […] BrdU can be used to show survival of the newly proliferating cells since it is incorporated into the newly synthesized DNA of replicating cells and is then maintained in the newly formed cells. Thus, quantitative immunohistochemistry against BrdU is used as a proxy of survival. Finally, doublecortin can be used as a proxy of maturation. Previous studies have shown that all steps of neurogenesis were down regulated in the SV129 mice, and further that chronic treatment with fluoxetine, a first line monoaminergic antidepressant, increased the neurogenesis in this mouse model. We therefore used this model system to assess the effects of chronic treatment with GL-II-73 on neurogenesis.
Fluoxetine treatment was used as a positive control in each experiment.

## CNCCC(Oc1ccc(C(F)(F)F)cc1)c1ccccc1 (stereo not shown) [FLX, fluoxetine]
Chronic treatment (4 weeks), FIG. 13A, FLX p<0.001, GL-II-73 p<0.05
  proliferation: number of K167-positive cells: increased the number of K167-positive cells
Chronic treatment (4 weeks), FIG. 13B
  survival: BrdU-positive cells: only FLX increased BrdU-positive cells
Chronic treatment, FIG. 14A, ps<0.05
  maturation: number of DCX+cells: increased with FLX compared to VEH
Chronic treatment, FIG. 14B, ps<0.01
  maturation index (DCX+cells possessing tertiary dendrites over the total DCX+cells): an increase with both FLX and GL-II-73
